Laboratory results as given in BindingDB's records for doi:10.1016/j.bmcl.2010.12.114 (Ligand Pharmaceuticals, 2011).

Assay: Inhibition of human CXCR3 by chemotaxis assay

IC50: 23 nM
Structure (SMILES): C[C@H]1CN(c2ncc(C(=O)NCc3ccc(F)c(F)c3)cc2Cl)CCN1C1CCN(Cc2ccc(Cl)cc2)CC1 [(S)-5-chloro-6-(4-(1-(4-chlorobenzyl)piperidin-4-yl)-3-methylpiperazin-1-yl)-N-(3,4-difluorobenzyl)nicotinamide]
